Test results published in paper PMC8563902, “N^1-methyladenosine methylation in tRNA drives liver tumourigenesis by regulating cholesterol metabolism” (Nature Communications, 2021).

Biological target: TRMT6/TRMT61A complex (Homo sapiens, UniProt Q96FX7+Q9UJA5)
Assay: screen for block of TRMT6/TRMT61A interaction in vitro; m1A by LC-MS/MS in treated PLC/PRF/[…] cells
Type: cell-based
Conditions: blocks subunit interaction (method not described); m1A read in cells treated at the proliferation IC50

Chain of TRMT6/TRMT61A complex (Q96FX7 2-289): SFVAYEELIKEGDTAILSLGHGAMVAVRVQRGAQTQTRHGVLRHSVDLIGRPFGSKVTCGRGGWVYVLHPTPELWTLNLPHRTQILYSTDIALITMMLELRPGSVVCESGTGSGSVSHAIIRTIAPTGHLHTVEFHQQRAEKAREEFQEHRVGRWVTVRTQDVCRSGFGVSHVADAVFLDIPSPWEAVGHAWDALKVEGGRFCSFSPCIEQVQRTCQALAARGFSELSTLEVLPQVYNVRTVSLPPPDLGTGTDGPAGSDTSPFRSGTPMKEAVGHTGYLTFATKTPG
Chain of TRMT6/TRMT61A complex (Q9UJA5 whole entry): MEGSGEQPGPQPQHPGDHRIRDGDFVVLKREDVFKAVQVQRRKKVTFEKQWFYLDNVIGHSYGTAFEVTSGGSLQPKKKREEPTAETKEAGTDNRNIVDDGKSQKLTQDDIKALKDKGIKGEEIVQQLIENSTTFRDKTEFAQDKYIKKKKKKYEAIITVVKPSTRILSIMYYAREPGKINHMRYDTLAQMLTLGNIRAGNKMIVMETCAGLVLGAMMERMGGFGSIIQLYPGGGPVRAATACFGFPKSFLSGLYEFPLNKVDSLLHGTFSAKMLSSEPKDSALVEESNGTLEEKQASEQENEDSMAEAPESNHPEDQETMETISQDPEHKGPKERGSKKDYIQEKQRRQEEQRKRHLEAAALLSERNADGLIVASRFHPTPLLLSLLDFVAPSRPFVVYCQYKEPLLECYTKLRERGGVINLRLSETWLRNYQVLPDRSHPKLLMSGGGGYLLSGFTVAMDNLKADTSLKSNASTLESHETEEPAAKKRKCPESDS

CN(C)C(=S)SSC(=S)N(C)C [thiram]
screen for block of TRMT6/TRMT61A interaction in vitro; m1A by LC-MS/MS in treat: thiram acts as an efficient inhibitor against TRMT6/TRMT61A complex
